# Assay results reported in patent publication US11834663B2, “Fibrotic treatment” (Monash University, priority 2015, dated 2023).
# How the values were obtained:
# aged WT mice = assay: Systolic blood pressure, body weight and cardiac hypertrophy in aged WT mice after chronic IRAP inhibition; format: in vivo, mouse
# Experimental: There are 8 different sets of in vivo experiments in this study: • A) Phenotypic characterisation of the heart and blood vessels in global IRAP knockout mice and their WT controls treated for 4 weeks with Angiotensin (Ang) II (800 ng/kg/min; s.c.) where mouse hearts and blood vessels were compared to tissue obtained from young WT and IRAP^−/− mice treated with saline. • B) Prevention of Ang II-induced changes in the cardiovascular system following IRAP inhibitor treatment. In the prevention model, WT mice were treated with Ang II (800 ng/kg/min; s.c.)±the IRAP inhibitor (HFI-419; 500 ng/kg/min for 28 days) or HFI-vehicle (1 DMSO:3 HBC). • C) Phenotypic characterisation of the aged heart, kidney and blood vessels in the global IRAP knockout mice where aged WT and IRAP^−/− mouse hearts, kidneys and blood vessels were compared to tissue obtained from young WT and IRAP^−/− mice. • D) Reversal of the age-induced changes in the cardiovascular system following IRAP inhibitor treatment. In the reversal model, aged WT mice were treated with either saline, IRAP inhibitor (HFI-419 at 500 ng/kg/min; compound 1 at 500 ng/kg/min; compound 2 at 50 ng/kg/min) or HFI-vehicle (1 DMSO: 3 HBC) for 4 weeks. • E) Prevention of ischemic-reperfusion injury in isolated hearts taken from aged global IRAP knockout mice and aged IRAP inhibitor (HFI-419 at 500 ng/kg/min; s.c.) treated WT mice compared to age-matched vehicle-treated (1 DMSO:3 HBC; s.c.) WT controls. • F) Phenotypic characterization of cardiac function using echocardiography in the aged global IRAP knockout mice compared to aged and young WT mice. • G) Phenotypic characterization of liver steatosis in IRAP knockout mice in a high fat diet (HFD) model. • H) Reversal of the salt-induced fibrosis in the liver following IRAP inhibitor treatment.
# All mice which underwent surgery were anaesthetized with Isoflurane (Isorrane) (5% induction and 2.5% maintenance) and an incision made in the midscapular region through which osmotic minipumps (Alzet model 2004, Alza Corp) were inserted for subcutaneous drug administration. The incision area was sutured with 6/0 DY silk (Dynek Pty Ltd) and antibiotic powder applied (Cicatrin, Pfizer) followed by intramuscular injection of the analgesic Cartrophen (0.1 ml of a 1.5 mg/ml stock solution; Biopharm Australia). Systolic blood pressure (SBP) was measured fortnightly using non-invasive tail-cuff plethysmography apparatus (MC4000 Blood Pressure Analysis System, Hatteras Instrument Inc) before drug treatment (week 0), at week 2 of treatment and end of treatment (week 4). At the end of drug treatment, body weight of mice was recorded. Mice were anaesthetized using Isoflurane inhalation and killed by cervical dislocation. Organs (heart, aorta, kidneys, brain, blood and tibia) were collected, with heart and aorta being dissected appropriately as described below. All organs were then snap frozen in liquid nitrogen, and stored at −80° C. if they were not used for vascular reactivity studies conducted on the day mice were killed.
# Ventricular weight (VW) was compared to the body weight (BW) as a ratio of VW:BW (mg/g), as well as comparison of VW to tibial length (TL) in as a ratio of VW:TL (mg/mm) respectively. […] The average of 100 cardiomyocytes per heart section was performed under 60× magnification and analyzed using Image J.
# [1] = tested on: livers of WT mice on high salt diet; assay: High salt diet-induced liver fibrosis reversal model (Masson's trichrome); format: in vivo, mouse; conditions: WT mice on 5% NaCl diet 8 weeks, FIG. 28
# Experimental: Male C57BL/6J wild type (WT) mice aged approximately 4 to 6 months weighing 30-40 grams were obtained from Monash Animal Research Laboratory. Animals were housed in the Animal House in the Department of Pharmacology, Monash University, in standard cages where they were initially maintained on a normal diet. The housing was maintained at roughly 21° C.±5° C. with mice exposed to a 12 hour light/dark cycle, and access to food and water ad libitum. Experimental procedures undertaken were approved and certified by the School of Biomedical Sciences (SOBS) Animal Ethics Committee of Monash University (2013/118).
# A high-salt diet (5% salt) model is a clinically relevant and disease-reversal model which can replicate the high salt intake by humans which is currently a growing problem in the developed countries. High salt intake induces changes in the cardiovascular system and induces remodelling and fibrosis in the heart and liver. […]
# Quantification of liver fibrosis was performed using images captured with the Aperio scanner (Monash Histology Platform, Monash University), with ×5 magnification. […] Percentage of interstitial and perivascular collagen was analysed and quantified using ImageJ 1.48 software (Java, NIH), and the percentage from 5 random fields of view were averaged for final percentage of collagen for that particular animal. […]
smiles,measurement,setting,value
CCOC(=O)C1=C(NC(C)=O)Oc2cc(O)ccc2C1c1cccnc1 (stereo not shown) [HFI-419],"systolic blood pressure, SBP","aged WT mice; chronic (4 week) HFI-419, FIG. 16a",no significant effect
same,body weight,"aged WT mice; chronic (4 week) HFI-419, FIG. 16b",no significant effect
same,"ventricular weight to body weight ratio, VW:BW","aged WT mice; chronic (4 week) HFI-419, FIG. 16c",no significant effect
same,cardiomyocyte cross-sectional area (H&E),"aged WT mice; chronic (4 week) HFI-419, FIG. 16e",no effect
same,"ventricular weight to tibial length ratio, VW:TL","aged WT mice; chronic (4 week) HFI-419, FIG. 16d",no significant effect
same,HSD-induced collagen deposition in liver (Masson's trichrome),[1]; HFI-419 0.72 mg/kg/d s.c. for last 4 weeks,significantly reversed HSD-induced collagen deposition to the same level seen in mice fed a normal chow diet
same,indicators of steatosis in the liver,[1]; HFI-419 for last 4 weeks,markedly reduced
